Experimental data reported in BindingDB's records for doi:10.1016/j.bmcl.2009.09.017 (Pfizer, 2009).

Test: Antagonist activity at P2Y12 receptor in human platelet rich plasma assessed as inhibition of ADP-induced platelet aggregation by light transmission aggregometry

| Compound | IC50 [µM] |
| --- | --- |
| CCCCOC(=O)N1CCN(C(=O)[C@H](CCC(=O)O)NC(=O)c2cc(OC(CC)C(=O)N(CC)CC)nc(-c3ccccc3)n2)CC1 (stereo partly drawn) [(4S)-5-(4-(butoxycarbonyl)piperazin-1-yl)-4-(6-(1-(diethylamino)-1-oxobutan-2-yloxy)-2-phenylpyrimidine-4-carboxamido)-5-oxopentanoic acid] | 49 |
| CCCCOC(=O)N1CCN(C(=O)[C@H](CCC(=O)O)NC(=O)c2cc(OCC3CCCO3)nc(-c3ccccc3)n2)CC1 (stereo partly drawn) [(4S)-5-(4-(butoxycarbonyl)piperazin-1-yl)-5-oxo-4-(2-phenyl-6-((tetrahydrofuran-2-yl)methoxy)pyrimidine-4-carboxamido)pentanoic acid] | 4.4 |
| CCCCCOC(=O)N1CCN(C(=O)[C@H](CCC(=O)O)NC(=O)c2nc(OCCOC)cc(-c3ccccc3)n2)CC1 [(S)-4-(4-(2-methoxyethoxy)-6-phenylpyrimidine-2-carboxamido)-5-oxo-5-(4-(pentyloxycarbonyl)piperazin-1-yl)pentanoic acid] | > 10 |
| CCCCCOC(=O)N1CCN(C(=O)[C@H](CCC(=O)O)NC(=O)c2nc(NCCOC)cc(-c3ccccc3)n2)CC1 [(S)-4-(4-(2-methoxyethylamino)-6-phenylpyrimidine-2-carboxamido)-5-oxo-5-(4-(pentyloxycarbonyl)piperazin-1-yl)pentanoic acid] | > 10 |
| CCCCCOC(=O)N1CCN(C(=O)[C@H](CCC(=O)O)NC(=O)c2nc(NCCCN(C)C)cc(-c3ccccc3)n2)CC1 [(S)-4-(4-(3-(dimethylamino)propylamino)-6-phenylpyrimidine-2-carboxamido)-5-oxo-5-(4-(pentyloxycarbonyl)piperazin-1-yl)pentanoic acid] | > 10 |
| CCCCCOC(=O)N1CCN(C(=O)[C@H](CCC(=O)O)NC(=O)c2nc(-c3ccccc3)cc(N3CCN(CC(=O)N(C)C)CC3)n2)CC1 [(S)-4-(4-(4-(2-(dimethylamino)-2-oxoethyl)piperazin-1-yl)-6-phenylpyrimidine-2-carboxamido)-5-oxo-5-(4-(pentyloxycarbonyl)piperazin-1-yl)pentanoic acid] | 3 |
| CCCCCOC(=O)N1CCN(C(=O)[C@H](CCC(=O)O)NC(=O)c2nc(-c3ccccc3)cc(N3CCC(OCCO)CC3)n2)CC1 [(S)-4-(4-(4-(2-hydroxyethoxy)piperidin-1-yl)-6-phenylpyrimidine-2-carboxamido)-5-oxo-5-(4-(pentyloxycarbonyl)piperazin-1-yl)pentanoic acid] | > 10 |
| CCCCCOC(=O)N1CCN(C(=O)[C@H](CCC(=O)O)NC(=O)c2nc(-c3ccccc3)cc(N3CCN(CCOC)CC3)n2)CC1 [(S)-4-(4-(4-(2-methoxyethyl)piperazin-1-yl)-6-phenylpyrimidine-2-carboxamido)-5-oxo-5-(4-(pentyloxycarbonyl)piperazin-1-yl)pentanoic acid] | 5.1 |
| CCCCCOC(=O)N1CCN(C(=O)[C@H](CCC(=O)O)NC(=O)c2nc(-c3ccccc3)cc(N3CCC(COCCOC)CC3)n2)CC1 [(S)-4-(4-(4-((2-methoxyethoxy)methyl)piperidin-1-yl)-6-phenylpyrimidine-2-carboxamido)-5-oxo-5-(4-(pentyloxycarbonyl)piperazin-1-yl)pentanoic acid] | > 10 |

Other lines, results leading:

| IC50 [µM] | Compound |
| --- | --- |
| 0.86 | CCCCCOC(=O)N1CCN(C(=O)[C@H](CCC(=O)O)NC(=O)c2cc(N3CCC(CN(CC)CC)CC3)nc(-c3ccccc3)n2)CC1 [(4S)-4-[(6-{4-[(diethylamino)methyl]piperidin-1-yl}-2-phenylpyrimidin-4-yl)formamido]-5-oxo-5-{4-[(pentyloxy)carbonyl]piperazin-1-yl}pentanoic acid] |
| 2.6 | CCCCCOC(=O)N1CCN(C(=O)[C@H](CCC(=O)O)NC(=O)c2cc(NCC3CCNC3)nc(-c3ccccc3)n2)CC1 (stereo partly drawn) [(4S)-5-oxo-5-(4-(pentyloxycarbonyl)piperazin-1-yl)-4-(2-phenyl-6-(pyrrolidin-3-ylmethylamino)pyrimidine-4-carboxamido)pentanoic acid] |
| > 10 | CCCCCOC(=O)N1CCN(C(=O)[C@H](CCC(=O)O)NC(=O)c2nc(NC3CCN(C(C)C)CC3)cc(-c3ccccc3)n2)CC1 [(S)-4-(4-(1-isopropylpiperidin-4-ylamino)-6-phenylpyrimidine-2-carboxamido)-5-oxo-5-(4-(pentyloxycarbonyl)piperazin-1-yl)pentanoic acid] |
| > 10 | CCCCCOC(=O)N1CCN(C(=O)[C@H](CCC(=O)O)NC(=O)c2nc(OCCN(CC)CC)cc(-c3ccccc3)n2)CC1 [(S)-4-(4-(2-(diethylamino)ethoxy)-6-phenylpyrimidine-2-carboxamido)-5-oxo-5-(4-(pentyloxycarbonyl)piperazin-1-yl)pentanoic acid] |
| 7 | CCCCCOC(=O)N1CCN(C(=O)[C@H](CCC(=O)O)NC(=O)c2nc(OCCCN3CCOCC3)cc(-c3ccccc3)n2)CC1 [(S)-4-(4-(3-morpholinopropoxy)-6-phenylpyrimidine-2-carboxamido)-5-oxo-5-(4-(pentyloxycarbonyl)piperazin-1-yl)pentanoic acid] |
| 1.4 | CCCCCOC(=O)N1CCN(C(=O)[C@H](CCC(=O)O)NC(=O)c2nc(-c3ccccc3)cc(N3CCC(CCN)CC3)n2)CC1 [(S)-4-(4-(4-(2-aminoethyl)piperidin-1-yl)-6-phenylpyrimidine-2-carboxamido)-5-oxo-5-(4-(pentyloxycarbonyl)piperazin-1-yl)pentanoic acid] |
| 5.3 | CCCCCOC(=O)N1CCN(C(=O)[C@H](CCC(=O)O)NC(=O)c2nc(-c3ccccc3)cc(N3CCC(OCCOC)CC3)n2)CC1 [(S)-4-(4-(4-(2-methoxyethoxy)piperidin-1-yl)-6-phenylpyrimidine-2-carboxamido)-5-oxo-5-(4-(pentyloxycarbonyl)piperazin-1-yl)pentanoic acid] |
| > 10 | CCCCCOC(=O)N1CCN(C(=O)[C@H](CCC(=O)O)NC(=O)c2nc(-c3ccccc3)cc(N3CCC(CCOC)CC3)n2)CC1 [(S)-4-(4-(4-(2-methoxyethyl)piperidin-1-yl)-6-phenylpyrimidine-2-carboxamido)-5-oxo-5-(4-(pentyloxycarbonyl)piperazin-1-yl)pentanoic acid] |
| 1.2 | CCCCCOC(=O)N1CCN(C(=O)[C@H](CCC(=O)O)NC(=O)c2nc(-c3ccccc3)cc(N3CCC(CNCC)CC3)n2)CC1 [(S)-4-(4-(4-((ethylamino)methyl)piperidin-1-yl)-6-phenylpyrimidine-2-carboxamido)-5-oxo-5-(4-(pentyloxycarbonyl)piperazin-1-yl)pentanoic acid] |
| 1.3 | CCCCCOC(=O)N1CCN(C(=O)[C@H](CCC(=O)O)NC(=O)c2nc(-c3ccccc3)cc(N3CCC(CNC)CC3)n2)CC1 [(S)-4-(4-(4-((methylamino)methyl)piperidin-1-yl)-6-phenylpyrimidine-2-carboxamido)-5-oxo-5-(4-(pentyloxycarbonyl)piperazin-1-yl)pentanoic acid] |
| 0.77 | CCCCCOC(=O)N1CCN(C(=O)[C@H](CCC(=O)O)NC(=O)c2nc(-c3ccccc3)cc(N3CCC(CN)CC3)n2)CC1 [(S)-4-(4-(4-(aminomethyl)piperidin-1-yl)-6-phenylpyrimidine-2-carboxamido)-5-oxo-5-(4-(pentyloxycarbonyl)piperazin-1-yl)pentanoic acid] |
